Laboratory results published in ChEMBL document CHEMBL1201862, “PubChem BioAssay data set” (2004).
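In this assay, cells in 96-well plates receive the compound at five concentrations for 48 hours. Endpoints are linearly interpolated between the surrounding concentrations. GI50 = concentration required for 50% inhibition of growth.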 The source made the active and inactive calls. Rule as the data show it: active = GI50 up to about 1.1 µM and inactive = higher.

Assays:
Test in all cases: inhibition of tumour cell growth, NCI panel, 48 h
[1] = system: HL-60
[2] = system: NCI-H226
[3] = system: SK-OV-3
[4] = system: OVCAR-8
[5] = system: IGROV-1
[6] = system: RXF 393
[7] = system: 786-0
[8] = system: Malme-3M
[9] = system: KM12
[10] = system: SK-MEL-28
[11] = system: SR
[12] = system: SF-295
[13] = system: NCI-H522
[14] = system: OVCAR-5
[15] = system: Hs-578T
[16] = system: MDA-MB-231
[17] = system: A549
[18] = system: U-251
[19] = system: K562
[20] = system: HOP-92

Compound | GI50 [1] | GI50 [2] | GI50 [3] | GI50 [4] | GI50 [5] | GI50 [6] | GI50 [7] | GI50 [8] | GI50 [9] | GI50 [10] | GI50 [11] | GI50 [12] | GI50 [13] | GI50 [14] | GI50 [15] | GI50 [16] | GI50 [17] | GI50 [18] | GI50 [19] | GI50 [20]
CC(C)NC1(C(N)=O)CCN(Cc2ccccc2)CC1 | > 100 µM (inactive) | > 100 µM (inactive) | > 100 µM (inactive) | > 100 µM (inactive) | > 100 µM (inactive) | > 100 µM (inactive) | > 100 µM (inactive) | > 100 µM (inactive) | > 100 µM (inactive) | > 100 µM (inactive) | > 100 µM (inactive) | > 100 µM (inactive) | > 100 µM (inactive) | > 100 µM (inactive) | > 100 µM (inactive) | > 100 µM (inactive) | > 100 µM (inactive) | > 100 µM (inactive) | > 100 µM (inactive) | > 100 µM (inactive)
Nc1cc(C(=O)O)nc(O)n1 | > 100 µM (inactive) | > 100 µM (inactive) | > 100 µM (inactive) | > 100 µM (inactive) | > 100 µM (inactive) | > 100 µM (inactive) | > 100 µM (inactive) | > 100 µM (inactive) | > 100 µM (inactive) | > 100 µM (inactive) | > 100 µM (inactive) | > 100 µM (inactive) | > 100 µM (inactive) | > 100 µM (inactive) | > 100 µM (inactive) | > 100 µM (inactive) | > 100 µM (inactive) | > 100 µM (inactive) | > 100 µM (inactive) | > 100 µM (inactive)
NS(=O)(=O)c1ccc(NC(=O)c2cccc3cc4ccccc4nc23)cc1 | 25.9 µM (inactive) | 25.9 µM (inactive) | > 88.7 µM (inactive) | 6.3 µM (inactive) | > 78.2 µM (inactive) | 17.7 µM (inactive) | 12.8 µM (inactive) | 12.2 µM (inactive) | 11.3 µM (inactive) | > 91 µM (inactive) | 4.58 µM (inactive) | 16.3 µM (inactive) | 17.1 µM (inactive) | > 96.2 µM (inactive) | 8.53 µM (inactive) | > 100 µM (inactive) | 10 µM (inactive) | 23.4 µM (inactive) | 30.1 µM (inactive) | 15.1 µM (inactive)
CC(C)(C)c1cc(C(P(=O)(c2ccccc2)c2ccccc2)P(=O)(c2ccccc2)c2ccccc2)cc(C(C)(C)C)c1O | 3.03 µM (inactive) | 3.44 µM (inactive) | 3.11 µM (inactive) | 2.44 µM (inactive) | 3.12 µM (inactive) | 3.19 µM (inactive) | 2.8 µM (inactive) | 2.47 µM (inactive) | 1.8 µM (inactive) | 1.95 µM (inactive) | 2.28 µM (inactive) | 1.92 µM (inactive) | 2.28 µM (inactive) | 2.56 µM (inactive) | 2.48 µM (inactive) | 2.76 µM (inactive) | 2.89 µM (inactive) | 2.77 µM (inactive) | 3.42 µM (inactive) | 2.43 µM (inactive)
CC(=O)CCC[C@@H](C)[C@@H]1O[C@H]([C@@]2(C)CCC(=O)O2)C[C@H]2C(CSc3ccccc3)C(=O)O[C@@H]12 (stereo not given in full) | 2.42 µM (inactive) | 14.8 µM (inactive) | 44.7 µM (inactive) | 20 µM (inactive) | 9.66 µM (inactive) | 4.16 µM (inactive) | 12.9 µM (inactive) | 8.09 µM (inactive) | 15.1 µM (inactive) | 18.7 µM (inactive) | 6.79 µM (inactive) | 44.1 µM (inactive) | 3.6 µM (inactive) | 15.1 µM (inactive) | 12.4 µM (inactive) | 18.1 µM (inactive) | 13.8 µM (inactive) | 16.9 µM (inactive) | 6.18 µM (inactive) | 16.3 µM (inactive)
O=c1[nH]c2cc(Cl)ccc2nc1/C(=N/Nc1ccccc1)C(O)c1ccco1 (stereo not given) | > 100 µM (inactive) | > 100 µM (inactive) | > 100 µM (inactive) | > 100 µM (inactive) | > 100 µM (inactive) | > 100 µM (inactive) | > 100 µM (inactive) | > 100 µM (inactive) | > 100 µM (inactive) | > 100 µM (inactive) | > 100 µM (inactive) | > 100 µM (inactive) | > 100 µM (inactive) | > 100 µM (inactive) | > 100 µM (inactive) | > 100 µM (inactive) | > 100 µM (inactive) | > 100 µM (inactive) | > 100 µM (inactive) | > 100 µM (inactive)
CCOC(=O)C(NC(=O)CC(C)C)(Nc1ccc(S(=O)(=O)Nc2nc(C)cc(C)n2)cc1)C(F)(F)F (stereo not given) | > 100 µM (inactive) | > 100 µM (inactive) | > 100 µM (inactive) | > 100 µM (inactive) | > 100 µM (inactive) | > 100 µM (inactive) | > 100 µM (inactive) | > 100 µM (inactive) | > 100 µM (inactive) | > 100 µM (inactive) | > 100 µM (inactive) | > 100 µM (inactive) | > 100 µM (inactive) | > 100 µM (inactive) | > 100 µM (inactive) | > 100 µM (inactive) | > 100 µM (inactive) | > 100 µM (inactive) | > 100 µM (inactive) | > 100 µM (inactive)
Cn1ccnc1Sc1ccc(/C=N/NC(=O)c2ccccc2O)cc1[N+](=O)[O-] | 44.9 µM (inactive) | > 100 µM (inactive) | > 100 µM (inactive) | > 100 µM (inactive) | 35.1 µM (inactive) | > 100 µM (inactive) | 61.4 µM (inactive) | 40.9 µM (inactive) | > 100 µM (inactive) | > 100 µM (inactive) | 2.27 µM (inactive) | > 100 µM (inactive) | 41.7 µM (inactive) | > 100 µM (inactive) | 92.5 µM (inactive) | > 100 µM (inactive) | > 100 µM (inactive) | 66.4 µM (inactive) | 0.298 µM (active) | > 100 µM (inactive)
COC(=O)C(=O)C(C(=O)C(=O)Nc1nc2ccc(C)cc2s1)c1nc2ccc([N+](=O)[O-])cc2nc1O (stereo not given) | > 100 µM (inactive) | > 100 µM (inactive) | > 100 µM (inactive) | > 100 µM (inactive) | 47.9 µM (inactive) | > 100 µM (inactive) | > 100 µM (inactive) | > 100 µM (inactive) | > 100 µM (inactive) | > 100 µM (inactive) | > 100 µM (inactive) | > 100 µM (inactive) | > 100 µM (inactive) | > 100 µM (inactive) | 93.1 µM (inactive) | > 100 µM (inactive) | > 100 µM (inactive) | > 100 µM (inactive) | > 100 µM (inactive) | 65.2 µM (inactive)
C[n+]1cn(C2=C([N-]S(=O)(=O)c3ccccc3)C(=O)c3ccccc3C2=O)c2ccccc21 | 13 µM (inactive) | 56.4 µM (inactive) | > 100 µM (inactive) | 20 µM (inactive) | 17.3 µM (inactive) | 20.3 µM (inactive) | 48.4 µM (inactive) | 1.55 µM (inactive) | 15.9 µM (inactive) | 36.1 µM (inactive) | 44.6 µM (inactive) | 61.4 µM (inactive) | 11.9 µM (inactive) | > 100 µM (inactive) | 41.9 µM (inactive) | 20.1 µM (inactive) | 85.9 µM (inactive) | 19.3 µM (inactive) | 29.9 µM (inactive) | 42.1 µM (inactive)
O=C(CCCN1CCC2(CC1)NC(=O)c1ccccc1O2)c1ccc(F)cc1 | 85.3 µM (inactive) | > 100 µM (inactive) | > 100 µM (inactive) | > 100 µM (inactive) | > 100 µM (inactive) | 64.7 µM (inactive) | > 100 µM (inactive) | 70.6 µM (inactive) | > 100 µM (inactive) | > 100 µM (inactive) | 57 µM (inactive) | > 100 µM (inactive) | > 100 µM (inactive) | 87.1 µM (inactive) | 96.8 µM (inactive) | > 100 µM (inactive) | > 100 µM (inactive) | > 100 µM (inactive) | 39.7 µM (inactive) | > 100 µM (inactive)
C[C@H]1CC[C@]2(NC1)O[C@H]1C[C@H]3[C@@H]4CC[C@H]5C[C@@H](O[C@@H]6O[C@H](CO)[C@H](O[C@@H]7O[C@H](CO)[C@@H](O)[C@H](O[C@@H]8OC[C@@H](O)[C@H](O)[C@H]8O)[C@H]7O[C@@H]7O[C@H](CO)[C@@H](O)[C@H](O)[C@H]7O)[C@H](O)[C@H]6O)CC[C@]5(C)[C@H]4CC[C@]3(C)[C@H]1[C@@H]2C [TOMATINE] | 2.48 µM (inactive) | 1.95 µM (inactive) | 1.61 µM (inactive) | 2.24 µM (inactive) | 0.729 µM (active) | 1.8 µM (inactive) | 1.29 µM (inactive) | 0.605 µM (active) | 1.98 µM (inactive) | 1.26 µM (inactive) | 2.42 µM (inactive) | 1.05 µM (active) | 1.62 µM (inactive) | 1.24 µM (inactive) | 1.64 µM (inactive) | 1.3 µM (inactive) | 1.55 µM (inactive) | 1.02 µM (active) | 2.74 µM (inactive) | 1.99 µM (inactive)
